In patent US12435044B2, “Pyridazinone herbicides and pyridazinone intermediates used to prepare a herbicide” (FMC Corporation, priority 2018, dated 2025):

Experiments:
Type in all cases: in vivo
[1] = tested on: palmer amaranth (AMAPA; Amaranthus palmeri); test: Test G preemergence, mixtures of Cpd. No. 20 with (b15C1)
Source text: This test evaluated the effect of mixtures of Cpd. No. 20 with (b15C1) on several plant species. Seeds of plant species selected from corn (ZEAMD; Zea mays, cv. ‘Pioneer 1184’), soybean (GLXMA; Glycine max, cv. Pioneer 35T58), giant foxtail (SETFA; Setaria faberi), barnyardgrass (ECHCG; Echinochloa crus-galli), large crabgrass (DIGSA; Digitaria sanguinalis), palmer amaranth (AMAPA; Amaranthus palmeri), common waterhemp (AMATU; Amaranthus rudis), and common ragweed (AMBEL; Ambrosia artemisiifolia) were planted in pots containing Tama Silt Loam soil and treated preemergence with a directed soil spray using test chemicals formulated in a non-phytotoxic solvent mixture which included a surfactant.
Treated plants and untreated controls were maintained in a greenhouse for approximately 21 d, after which time all treated plants were compared to untreated controls and visually evaluated for injury. Plant response ratings, summarized in Table G, are based on a 0 to 100 scale where 0 is no effect and 100 is complete control. A dash (-) response means no test result. Test results are presented as a mean of 4 reps.

[2] = tested on: pigweed (Amaranthus retroflexus); test: Test C pre-/postemergence greenhouse test; details: scale 0 to 100
Summary of the method: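 Test chemicals were formulated in a non-phytotoxic solvent mixture with surfactant and applied preemergence to seeds in silt loam soil or postemergence to plants of 2 to 18 cm in a peat/vermiculite medium. After 13 to 21 d in a greenhouse, response was visually scored from 0 (no effect) to 100 (complete control).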

[3] = tested on: sedge, umbrella (small-flower umbrella sedge, Cyperus difformis); test: Test F flooded paddy test; details: Flood, after 21 d
Source text: (§1) Three plastic pots (ca. 16-cm diameter) per rate were partially filled with sterilized Tama silt loam soil comprising a 35:50:15 ratio of sand, silt and clay and 2.6% organic matter. Separate plantings for each of the three pots were as follows. Seeds from the U.S. of monochoria (Monochoria vaginalis), sedge, umbrella (small-flower umbrella sedge, Cyperus difformis) and redstem (purple redstem, Ammannia coccinea), were planted into one 16-cm pot for each rate. Seeds from the U.S. of rice flatsedge (Cyperus iria), sprangletop, Brdd. (bearded sprangletop, Leptochloa fascicularis), one stand of 9 or 10 water seeded rice seedlings (Rice, W. S. Jap, Oryza sativa cv. ‘Japonica-M202’ or Rice, W. S. Ind, ‘Indica’), and two stands of 3 or 4 transplanted rice seedlings (Oryza sativa cv. ‘Japonica-M202’) were planted into one 16-cm pot for each rate. Seeds from the U.S. of barnyardgrass (Echinochloa crus-galli), and late watergrass (Echinochloa oryzicola) were planted into one 16-cm pot for each rate.
(§2) Plantings were sequential so that crop and weed species were at the 2.0 to 2.5-leaf stage at time of treatment.
(§3) Potted plants were grown in a greenhouse with day/night temperature settings of 30/27° C., and supplemental balanced lighting was provided to maintain a 16-hour photoperiod. Test pots were maintained in the greenhouse until test completion.
(§4) At time of treatment, test pots were flooded to 3 cm above the soil surface, treated by application of test compounds directly to the paddy water, and then maintained at that water depth for the duration of the test. Effects of treatments on rice and weeds were visually evaluated by comparison to untreated controls after 21 d. Plant response ratings, summarized in Table F, are based on a scale of 0 to 100 where 0 is no effect and 100 is complete control. A dash (-) response means no test result.

[4] = tested on: redstem (purple redstem, Ammannia coccinea); test: Test F flooded paddy test; details: Flood, after 21 d
Source text: as §1, §2, §3, §4

[5] = tested on: rice flatsedge (Cyperus iria); test: Test F flooded paddy test; details: Flood, after 21 d
Source text: as §1, §2, §3, §4

[6] = tested on: sprangletop, Brdd. (bearded sprangletop, Leptochloa fascicularis); test: Test F flooded paddy test; details: Flood, after 21 d
Source text: as §1, §2, §3, §4

[7] = tested on: Bulrush, Japanese (Scirpus juncoides); test: Test C flooded paddy test; details: Flood, scale 0 to 100

Q: What does the source list for `Cc1ccc2ccc(C)c(-c3c(O)c(Cl)nn(C)c3=O)c2c1` [Cpd. No. 20, 6-chloro-4-(2,7-dimethyl-1-naphthalenyl)-5-hydroxy-2-methyl-3(2H)-pyridazinone]?
A: Plant response rating (0 to 100 scale) ([1]; Cpd. No. 20 16 g a.i./ha alone): 73; Plant response rating (0 to 100 scale) ([1]; Cpd. No. 20 31 g a.i./ha alone): 70; Plant response rating (0 to 100 scale) ([1]; Cpd. No. 20 62 g a.i./ha alone): 78; Plant response rating, Pigweed ([2]; Postemergence, 16 g ai/ha): 90; Plant response rating, Pigweed ([2]; Postemergence, 31 g ai/ha): 95; Plant response rating, Pigweed ([2]; Postemergence, 62 g ai/ha): 95; Plant response rating, Pigweed ([2]; Postemergence, 125 g ai/ha): 98; Plant response rating, Pigweed ([2]; Preemergence, 31 g ai/ha): 100; Plant response rating, Pigweed ([2]; Preemergence, 61 g ai/ha): 100; Plant response rating, Pigweed ([2]; Preemergence, 62 g ai/ha): 100; Plant response rating, Pigweed ([2]; Preemergence, 125 g ai/ha): 100; Plant response rating (0 to 100 scale) ([3]; 31 g ai/ha): 0; Plant response rating (0 to 100 scale) ([3]; 62 g ai/ha): 60; Plant response rating (0 to 100 scale) ([3]; 125 g ai/ha): 95; Plant response rating (0 to 100 scale) ([3]; 250 g ai/ha): 100; Plant response rating (0 to 100 scale) ([4]; 31 g ai/ha): 0; Plant response rating (0 to 100 scale) ([4]; 62 g ai/ha): 0; Plant response rating (0 to 100 scale) ([4]; 125 g ai/ha): 92; Plant response rating (0 to 100 scale) ([4]; 250 g ai/ha): 99; Plant response rating (0 to 100 scale) ([5]; 31 g ai/ha): 70; Plant response rating (0 to 100 scale) ([5]; 62 g ai/ha): 85; Plant response rating (0 to 100 scale) ([5]; 125 g ai/ha): 97; Plant response rating (0 to 100 scale) ([5]; 250 g ai/ha): 100

Q: Which results are given for `Cc1cc(Cl)c2ccccc2c1-c1c(O)c(Cl)nn(C)c1=O` [Cpd. No. 65]?
A: Plant response rating (0 to 100 scale) ([6]; 64 g ai/ha): 98; Plant response rating (0 to 100 scale) ([6]; 125 g ai/ha): 100; Plant response rating, Bulrush, Japanese ([7]; 62 g ai/ha): 75; Plant response rating, Bulrush, Japanese ([7]; 125 g ai/ha): 90
